In patent publication US20080269293A1, “PYRAZOLE DERIVATIVES AS ANTI-PLATELET AND ANTI-THROMBOTIC AGENTS” (Pfizer Inc., priority 2006, published 2008):

What follows are compounds tested against T1, platelet P2Y1 receptor (Homo sapiens, UniProt P47900) (assay: P2Y1 receptor binding assay ([β-33P]-2-thiomethyl ADP)). Settings: binding of 0.3 nM [β-33P]-2-thiomethyl ADP, hP2Y1 expressing 132N1 cell membrane, 25° C., 60 minutes.
T1 construct: expressed in transfected cells
Description: Conducting P2Y, Receptor Binding Assay
[β−^33P]-2-thiomethyl ADP (2100 Ci/mmol) was purchased from PerkinElmer, Protease Inhibitors Complete, EDTA-free, was purchased from Roche, and ADP (Adenosine diphosphate), MRS2179, and 2-thiomethy ADP (2-Me-S-ADP) were purchased from Sigma Chemical Co.
Binding of 0.3 nM [β-^33P]-2-thiomethyl ADP to platelet P2Y1 receptor in 132N1 cell membrane was carried out in triplicate at 25° C. with 96 well plate (Corning, 3365). Nonspecific binding was defined as binding in the presence of 1 μM of 2-Me-S-ADP. One […] of dimethyl sulfoxide (DMSO) or 1 μL of DMSO (Sigma-Aldrich, 472301) containing a test compound diluted to final assay concentrations of 0.1 nM to 1 mM were placed into each well of a Corning 96-well plate. A volume of 60 μL of buffer: 50 mM Tris pH 7.5 (Sigma, T-2194), 1 mM EDTA (Gibco, 15575-038) and 100 mM NaCl (Gibco, 200740-011) containing 0.3 nM [β-^33P]-2-thiomethyl ADP 40 μL of hP2Y1 expressing 132N1 cell membrane prep was added to each well. After incubation on shaker for 60 minutes, The contents of the wells are filtered and washed 8 times with Tomtec Cell Harvester through UniFilter 96, GF/B plates (PerkinElmer, 6005177) Forty five microliters […] Scintillation cocktail (Ultima-Flo-M) was added into each well and plates counted on a Trilux Microbeta Counter.
• 1. Add 1 μL DMSO or compounds into the wells according to the protocol. • 2. Add 60 μL incubation buffer with [β-^33P]-2-thiomethyl ADP into each well. • 3. Add 40 μL hP2Y1 expressing 132N1 cell membrance prep. Incubate 60 minutes on top of the shaker (IKA Shutter MTS4). • 4. Filter and wash 8× with Tomtec Cell Harvester through UniFilter GF/B plates (PerkinElmer, 6005177). • 5. Add 45 μL scintillation cocktail into each well and plates counted on a Trilux Microbeta Counter.

T1 sequence (P47900 whole entry): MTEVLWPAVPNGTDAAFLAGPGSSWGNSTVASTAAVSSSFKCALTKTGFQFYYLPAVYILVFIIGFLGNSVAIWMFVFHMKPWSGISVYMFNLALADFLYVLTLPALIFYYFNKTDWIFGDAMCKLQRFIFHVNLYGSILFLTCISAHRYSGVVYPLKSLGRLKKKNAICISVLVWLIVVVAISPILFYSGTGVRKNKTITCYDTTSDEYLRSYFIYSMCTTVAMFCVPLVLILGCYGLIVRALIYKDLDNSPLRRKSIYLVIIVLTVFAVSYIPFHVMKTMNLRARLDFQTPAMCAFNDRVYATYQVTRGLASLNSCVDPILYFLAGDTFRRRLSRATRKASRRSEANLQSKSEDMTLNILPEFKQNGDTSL

SMILES	IC50
Cc1cc(Oc2ccccc2NC(=O)Nc2ccc(C3CCN(C)CC3)cc2)n(-c2ccccc2Cl)n1 [Example 122, 1-(2-(1-(2-chlorophenyl)-3-methyl-1H-pyrazol-5-yloxy)phenyl)-3-(4-(1-methylpiperidin-4-yl)phenyl)urea]	> 10000 nM
COc1cc(NC(=O)Nc2ccccc2Oc2cc(C)nn2-c2ccccc2)cc(OC)c1OC [Example 57]	> 10000 nM
Cc1cc(Oc2ccccc2NC(=O)Nc2ccccc2Br)n(-c2ccccc2)n1 [Example 82]	> 10000 nM
Cc1cc(Oc2ccccc2NC(=O)Nc2c(Cl)cccc2Cl)n(-c2ccccc2)n1 [Example 61]	> 10000 nM
O=C(Nc1ccc(OC(F)(F)F)cc1)Nc1ccccc1Oc1ccnn1-c1ccccc1Cl [Example 25, 1-{2-[2-(2-Chloro-phenyl)-2H-pyrazol-3-yloxy]-phenyl}-3-(4-trifluoromethoxy-phenyl)-urea]	268 nM
COc1cccc(Oc2cc(C)nn2-c2ccccc2)c1NC(=O)Nc1ccc(OC(F)(F)F)cc1 [Example 33]	> 10000 nM
Cc1cc(Oc2ccccc2NC(=O)Nc2c(Cl)cccc2C(F)(F)F)n(-c2ccccc2)n1 [Example 59]	> 10000 nM
CCc1ccccc1-n1nc(C)cc1Oc1ccccc1NC(=O)Nc1ccccc1 [Example 95, 1-(2-(1-(2-ethylphenyl)-3-methyl-1H-pyrazol-5-yloxy)phenyl)-3-phenylurea]	689 nM
Cc1cc(Oc2ccccc2NC(=O)Nc2ccc(C(C)(C)C)cc2)n(-c2ccccc2)n1 [Example 12]	207 nM

The next compounds have a lower IC50 than those just listed; values first:

IC50	SMILES
198 nM	CCc1ccccc1-n1nc(C)cc1Oc1ccccc1NC(=O)Nc1ccc(OC(C)C)cc1 [Example 109, 1-(2-(1-(2-ethylphenyl)-3-methyl-1H-pyrazol-5-yloxy)phenyl)-3-(4-isopropoxyphenyl)urea]
149 nM	Cc1cc(Oc2ccccc2NC(=O)Nc2ccc(OC(F)(F)F)cc2)n(-c2cccc(Cl)c2F)n1 [Example 88, 1-{2-[2-(3-Chloro-2-fluoro-phenyl)-5-methyl-2H-pyrazol-3-yloxy]-phenyl}-3-(4-trifluoromethoxy-phenyl)-urea]
18 nM	Cc1cc(Oc2ccccc2NC(=O)Nc2ccc(C3CCCCC3)cc2)n(-c2ccc(F)cc2Cl)n1 [Example 115, 1-(2-(1-(2-chloro-4-fluorophenyl)-3-methyl-1H-pyrazol-5-yloxy)phenyl)-3-(4-cyclohexylphenyl)urea]
54 nM	Cc1cc(Oc2ccccc2NC(=O)Nc2ccc(C3CCCCC3)cc2)n(-c2ccccc2Cl)n1 [Example 89, 1-{2-[2-(2-Chloro-phenyl)-5-methyl-2H-pyrazol-3-yloxy]-phenyl}-3-(4-cyclohexyl-phenyl)-urea]
133 nM	CCc1ccccc1-n1nc(C)cc1Oc1ccccc1NC(=O)Nc1ccc(Cl)cc1 [Example 111, 1-(4-chlorophenyl)-3-(2-(1-(2-ethylphenyl)-3-methyl-1H-pyrazol-5-yloxy)phenyl)urea]
170 nM	Cc1cc(Oc2ccccc2NC(=O)Nc2ccc(Br)cc2)n(-c2ccccc2Cl)n1 [Example 126, 1-(4-bromophenyl)-3-(2-(1-(2-chlorophenyl)-3-methyl-1H-pyrazol-5-yloxy)phenyl)urea]
